For 73 compounds, Kd results are on record in PubChem BioAssay AID1033 (Sanford-Burnham Center for Chemical Genomics, 2008).

The structures appear in SMILES notation. Active and inactive are the calls of the source. No rule for the calls is given here.

As a reminder, the Kd is the equilibrium constant for the complex coming apart.

The target of the experiment is Chaperone protein DnaK (Escherichia coli (strain K12)) (UniProt P0A6Y8). The experiment can be described thus: E. coli DnaK SBD ligand binding – biophysical, NMR, chaperone (AID 1033). Particulars: Purified DnaK SBD.
Chaperone protein DnaK (Escherichia coli (strain K12)), sequence (P0A6Y8 whole entry, looked up): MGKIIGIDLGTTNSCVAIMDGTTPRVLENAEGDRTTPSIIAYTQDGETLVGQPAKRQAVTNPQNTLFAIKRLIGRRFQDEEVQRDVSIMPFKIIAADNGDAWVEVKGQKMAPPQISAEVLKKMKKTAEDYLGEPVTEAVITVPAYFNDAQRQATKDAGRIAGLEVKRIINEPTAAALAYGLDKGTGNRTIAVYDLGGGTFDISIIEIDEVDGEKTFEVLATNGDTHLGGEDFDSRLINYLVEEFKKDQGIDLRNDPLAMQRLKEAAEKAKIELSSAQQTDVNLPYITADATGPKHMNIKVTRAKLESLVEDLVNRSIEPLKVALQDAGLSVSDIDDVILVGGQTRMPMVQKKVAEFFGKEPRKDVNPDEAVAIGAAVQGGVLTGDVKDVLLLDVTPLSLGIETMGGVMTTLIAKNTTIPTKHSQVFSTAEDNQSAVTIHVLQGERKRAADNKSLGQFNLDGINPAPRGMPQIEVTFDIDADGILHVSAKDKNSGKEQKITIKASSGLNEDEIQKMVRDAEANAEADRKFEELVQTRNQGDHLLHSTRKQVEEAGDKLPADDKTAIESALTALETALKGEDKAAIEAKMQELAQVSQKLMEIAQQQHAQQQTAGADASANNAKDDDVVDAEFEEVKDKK
With `CCOC(=O)C1CCN(c2ccc(C#N)cc2)CC1`, the Kd was > 4 mM (inactive).

Regarding `CC(C)CCCC(C)C1CCC2C3=CC[C@H]4C[C@@H](O)CC[C@]4(C)C3CC[C@@]21C` (stereo partly drawn), the Kd was > 4 mM (inactive). On to `CC1O[C@@H](Oc2c(-c3ccc(O)c(O)c3)oc3cc(O)cc(O)c3c2=O)[C@H](O)[C@H](O)[C@H]1O` (stereo partly drawn), for which the Kd was > 4 mM (inactive).

For the compound `CC[C@@]1(O)C[C@H](O)c2c(cc3c(c2O)C(=O)c2c(O)ccc(O)c2C3=O)[C@H]1C(=O)OC`, the Kd is > 4 mM (inactive).

As for `C[C@H]1C(=O)CCC2[C@]3(C)CC[C@@]4(C)C5CC(C)(C)CC[C@]5(C)CC[C@]4(C)C3CC[C@@]21C` (stereo partly drawn), the Kd was > 4 mM (inactive). With `O=c1[nH]c(=S)c2c(n1-c1ccccc1)CCC2`, the Kd is > 4 mM (inactive). In the case of `COC(=O)c1cc(C)on1` it was > 4 mM (inactive); in that of `CC(=O)c1c(C)nc(-c2ccc(F)cc2)n1O`, > 4 mM (inactive). Consider `O=S1(=O)NC(=NCc2ccccc2)c2ccccc21`, for which the Kd is > 4 mM (inactive).

As for `O=C1Nc2ccc(S(=O)(=O)NCCO)c3cccc1c23`, the Kd was > 4 mM (inactive). For the compound `O=C1C=CC(=O)c2c(O)cccc21`, the Kd is > 4 mM (inactive). In the case of `C=CCn1c(N)c(C(=O)N2CCOCC2)sc1=S` it was > 4 mM (inactive); in that of `COc1cc2nc[nH]c(=O)c2cc1OC`, > 4 mM (inactive).

In the case of `Cc1ccc(N2C(=O)CC(=O)NC2=O)cc1`, the Kd was > 4 mM (inactive). For the compound `O=C(c1ccc(Cl)c(F)c1F)N1CCCC1`, the Kd was > 4 mM (inactive). Consider `Cc1nnc(SCC(=O)Nc2ccccc2)[nH]c1=O`, for which the Kd is > 4 mM (inactive). In the case of `O=C(O)/C=C/C(=O)Nc1ccccc1C(F)(F)F`, the Kd was > 4 mM (inactive). In the case of `Oc1ccc(C(=S)N2CCCCC2)cc1Cl` it was > 4 mM (inactive); in that of `OCc1ccc(-c2cccs2)s1`, > 4 mM (inactive). The result for `Cc1c(F)cccc1NS(=O)(=O)c1ccccc1C#N` reads > 4 mM (inactive). Take `CC(=O)N1C(=S)NC(=O)/C1=C\c1cccnc1`: the Kd is > 4 mM (inactive).

`Cc1cc(O)cc(=O)o1`: the Kd was > 4 mM (inactive). In the case of `C#CCCCCCCCCCCCC(O)CC(O)COC(C)=O` (stereo not drawn), the Kd is > 4 mM (inactive). In the case of `CC(=O)NC(=S)Nc1ccccc1C(N)=O` it was > 4 mM (inactive); in that of `O=C(O)C1CN(Cc2ccccc2)CCO1` (stereo not drawn), > 4 mM (inactive). With `OCC1Cc2ccccc2N1` (stereo not drawn), the Kd is > 4 mM (inactive). Regarding `COC(=O)c1cccc(N)c1`, the Kd is > 4 mM (inactive). The result for `Nc1ccc(NC(=O)c2ccco2)c(Cl)c1` reads > 4 mM (inactive); that for `Cc1c(C(=O)Nc2cnccn2)oc2ccccc12`, > 4 mM (inactive). In the case of `Cc1nc2ccccc2c(=O)n1CCCn1ccnc1`, the Kd was > 4 mM (inactive).

Regarding `Cc1cc(C(=O)NCc2ccco2)cs1`, the Kd is > 4 mM (inactive). For `C=C1CCC2C(CC2(C)C)C(=C)CC/C1=N/O` (stereo not drawn), the Kd was > 4 mM (inactive). The result for `NC(=O)c1ccsc1NC(=O)c1ccccc1[N+](=O)[O-]` reads > 4 mM (inactive); that for `COc1ccccc1-c1nc(=S)[nH][nH]1`, > 4 mM (inactive); that for `O=C(O)CCCCC1SCC2NC(=O)NC21` (stereo not drawn), > 4 mM (inactive). The result for `O=C1c2ccncc2C(=O)N1CNc1ccccn1` reads > 4 mM (inactive); that for `Cn1c(=O)cc(N2CCCCC2)[nH]c1=O`, > 4 mM (inactive).

Take `O=C(O)c1ccc(-c2cnco2)cc1`: the Kd was > 4 mM (inactive). In the case of `NC(=O)Cn1nc(-c2ccc(F)cc2)ccc1=O` it was > 4 mM (inactive); in that of `Cn1c(CO)nc2cc(N)ccc21`, > 4 mM (inactive); in that of `CNC(Cc1c[nH]c2ccccc12)C(=O)O` (stereo not drawn), > 4 mM (inactive). In the case of `Cc1ccc(SCc2cc(=O)n3[nH]cnc3n2)cc1` it was > 4 mM (inactive); in that of `S=c1[nH]cnc2sccc12`, > 4 mM (inactive). With `O=C(Nc1ccncc1)c1c(F)cccc1F`, the Kd is > 4 mM (inactive).

For `S=c1nc[nH]c2c1cnn2-c1ccccc1`, the Kd was > 4 mM (inactive). In the case of `O=C(CNC(=O)c1cccs1)NC1=NCCS1` it was > 4 mM (inactive); in that of `O=C(Nc1ccc2c(c1)OCO2)c1cnn2cccnc12`, > 4 mM (inactive); in that of `O=C(/C=C/C=C/c1ccc2c(c1)OCO2)N1CCCCC1`, > 4 mM (inactive). Regarding `COc1ccc(S(=O)(=O)N2CCOCC2)cc1C(C)C`, the Kd was > 4 mM (inactive).

Take `Cc1cc([N+](=O)[O-])cc[n+]1[O-]`: the Kd is > 4 mM (inactive). With `S=C(NC1=NCCS1)Nc1ccccc1`, the Kd was > 4 mM (inactive). The result for `Cc1cc(N(CN2CCCC2=O)C(=O)c2ccccc2)no1` reads > 4 mM (inactive).

Regarding `COC(=O)c1ccc(N2CCCC2)nc1`, the Kd is > 4 mM (inactive). In the case of `CC(=O)Nc1ccc(C(=O)NC2=NCCS2)cc1`, the Kd is > 4 mM (inactive).

With `O=S1(=O)CCC(NC(=S)Nc2ccccc2)C1` (stereo not drawn), the Kd was > 4 mM (inactive). As to `CC1=CC(=O)CC(C)(C)C1(O)/C=C/C(C)=C\C(=O)O` (stereo not drawn), the Kd is > 4 mM (inactive). In the case of `Cc1occc1C(=O)NCc1ccccn1` it was > 4 mM (inactive). Regarding `Cc1cccc(C)c1NC(=O)CN1CCOCC1`, the Kd was > 4 mM (inactive). The result for `Cn1cnnc1SCC(=O)Nc1ccccc1` reads > 4 mM (inactive). In the case of `COc1ccc(NC(=O)c2ccc[n+]([O-])c2)cc1` it was > 4 mM (inactive); in that of `S=c1nc(Cc2ccccc2)[nH][nH]1`, > 4 mM (inactive). In the case of `NCCCCNCCCN` it was > 4 mM (inactive). With `C=C1C([C@]2(C)C(CC(=O)OC)[C@@](C)(COC(C)=O)OC(=O)C[C@@H]2OC(C)=O)[C@@H](OC=O)[C@H](OC(=O)C(OC(C)=O)C(C)CC)[C@@]2(C)[C@H](c3ccoc3)CC(=O)C12O` (stereo partly drawn), the Kd is > 4 mM (inactive).

Turning to `Cc1cc(O)c(C=O)c(O)c1C(=O)O`, the Kd was > 4 mM (inactive). In the case of `COc1c2c(cc3c1OCO3)CCN(C)C2` it was > 4 mM (inactive); in that of `O=C(/C=C/c1ccccc1)c1ccc(O)cc1`, > 4 mM (inactive). The result for `CCN1C[C@@]2(COC)C3[C@@H](OC)[C@H]4[C@@H]1[C@]3(C(OC)C[C@H]2O)C1C[C@@]2(O)[C@H](OC(=O)c3ccccc3)C1[C@]4(OC(C)=O)[C@@H](O)[C@@H]2OC` (stereo partly drawn) reads > 4 mM (inactive); that for `O=C1CC(=O)N(c2ccccc2)C(=O)N1`, > 4 mM (inactive); that for `CN(C)C(=O)Oc1ccc(-c2nnco2)cc1`, > 4 mM (inactive).

On to `COC(=O)c1cccc(Cn2nnc3ccccc3c2=O)c1`, for which the Kd was > 4 mM (inactive).

Take `Cn1c(=O)cc(O)c2ccccc21`: the Kd was > 4 mM (inactive).

Turning to `Cc1scc(C(=O)Nn2cnnc2)c1-c1ccccc1`, the Kd is > 4 mM (inactive).

Take `Cn1ncc(C(=O)NC2CCCCC2)c1Cl`: the Kd is > 4 mM (inactive).
